Measured values published in the supplement of paper PMC11451515.

Tested on: P12-Ichikawa
Test: cell viability relative to DMSO control; higher = less cytotoxic
Settings: 48 h
How it was run: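 Three leukemia lines were tested: NOMO1 and SEM at 500 cells/well and P12-Ichikawa at 1000 cells/well. Each was adapted for at least four passages in each medium and seeded in 5 μl in 1536-well plates, and library compounds in DMSO were pin-dosed from 47 μM to 0.79 nM in 11 threefold steps. After 48 h at 37°C, CellTiter-Glo One luminescence was read. Viability is a percentage relative to DMSO wells on each plate, with cell-free wells as background.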

[1] = HPLM + 10% dialyzed FBS, 0.000781 µM
[2] = HPLM + 10% dialyzed FBS, 0.00234 µM
[3] = HPLM + 10% dialyzed FBS, 0.00702 µM
[4] = HPLM + 10% dialyzed FBS, 0.0211 µM
[5] = HPLM + 10% dialyzed FBS, 0.0632 µM
[6] = HPLM + 10% dialyzed FBS, 0.19 µM
[7] = HPLM + 10% dialyzed FBS, 0.569 µM
[8] = HPLM + 10% dialyzed FBS, 1.71 µM
[9] = HPLM + 10% dialyzed FBS, 5.12 µM
[10] = HPLM + 10% dialyzed FBS, 15.4 µM
[11] = HPLM + 10% dialyzed FBS, 46.1 µM
[12] = RPMI 5 mM glucose + 10% FBS, 0.000781 µM
[13] = RPMI 5 mM glucose + 10% FBS, 0.00234 µM
[14] = RPMI 5 mM glucose + 10% FBS, 0.00702 µM
[15] = RPMI 5 mM glucose + 10% FBS, 0.0211 µM
[16] = RPMI 5 mM glucose + 10% FBS, 0.0632 µM
[17] = RPMI 5 mM glucose + 10% FBS, 0.19 µM
[18] = RPMI 5 mM glucose + 10% FBS, 0.569 µM
[19] = RPMI 5 mM glucose + 10% FBS, 1.71 µM
[20] = RPMI 5 mM glucose + 10% FBS, 5.12 µM
[21] = RPMI 5 mM glucose + 10% FBS, 15.4 µM
[22] = RPMI 5 mM glucose + 10% FBS, 46.1 µM
[23] = RPMI 5 mM glucose + 10% dialyzed FBS, 0.000781 µM
[24] = RPMI 5 mM glucose + 10% dialyzed FBS, 0.00234 µM
[25] = RPMI 5 mM glucose + 10% dialyzed FBS, 0.00702 µM
[26] = RPMI 5 mM glucose + 10% dialyzed FBS, 0.0211 µM
[27] = RPMI 5 mM glucose + 10% dialyzed FBS, 0.0632 µM
[28] = RPMI 5 mM glucose + 10% dialyzed FBS, 0.19 µM
[29] = RPMI 5 mM glucose + 10% dialyzed FBS, 0.569 µM
[30] = RPMI 5 mM glucose + 10% dialyzed FBS, 1.71 µM
[31] = RPMI 5 mM glucose + 10% dialyzed FBS, 5.12 µM
[32] = RPMI 5 mM glucose + 10% dialyzed FBS, 15.4 µM
[33] = RPMI 5 mM glucose + 10% dialyzed FBS, 46.1 µM

Structure (SMILES)	cell viability [1]	cell viability [2]	cell viability [3]	cell viability [4]	cell viability [5]	cell viability [6]	cell viability [7]	cell viability [8]	cell viability [9]	cell viability [10]	cell viability [11]	cell viability [12]	cell viability [13]	cell viability [14]	cell viability [15]	cell viability [16]	cell viability [17]	cell viability [18]	cell viability [19]	cell viability [20]	cell viability [21]	cell viability [22]	cell viability [23]	cell viability [24]	cell viability [25]	cell viability [26]	cell viability [27]	cell viability [28]	cell viability [29]	cell viability [30]	cell viability [31]	cell viability [32]	cell viability [33]
COc1ccc(C(C)=O)c(O)c1	100%	106%	115%	109%	109%	114%	117%	102%	107%	24%	31%	115%	115%	106%	120%	128%	117%	114%	112%	116%	22%	30.6%	103%	109%	109%	104%	110%	114%	114%	99.9%	110%	25.8%	25.4%
CN1\C(=C(\O)C2=CC=CC=C2[S+]1([O-])=O)C(=O)NC3=NC=C(C)S3	95%	95.7%	93.9%	94.6%	99.3%	100%	98.4%	98.3%	101%	97.5%	112%	91.8%	91.7%	88%	86%	93.8%	88.8%	84.8%	89%	95.4%	96.7%	112%	79.3%	92.8%	83.1%	91.4%	96.2%	87%	92.7%	87.8%	80.8%	90%	86.7%
O=C1c2c(O)ccc(O)c2C(=O)c2c(NCCNCCO)ccc(NCCNCCO)c21	101%	105%	108%	110%	104%	99.7%	6.68%	36.9%	8.95%	7%	5.91%	96%	101%	96.7%	124%	107%	94.3%	4.89%	32.4%	5.93%	5.48%	5.03%	97.5%	96%	98%	106%	106%	102%	8.07%	45.4%	9.1%	7.62%	9.05%
O=C(c1ccc(Nc2nccc(-c3cc4ccccc4s3)n2)cc1)N1CCC(N2CCCC2)CC1	115%	109%	116%	112%	120%	107%	103%	98.8%	99.5%	67.7%	3.26%	117%	125%	119%	117%	114%	107%	112%	112%	105%	82.9%	6.91%	113%	119%	115%	119%	123%	106%	113%	107%	101%	63.8%	7%
C[C@]12CC[C@@H]3c4ccc(O)cc4C[C@@H](CCCCCCCCC[S+]([O-])CCCC(F)(F)C(F)(F)F)[C@H]3[C@@H]1CC[C@@H]2O (some centres undefined)	112%	119%	115%	116%	112%	117%	112%	112%	116%	104%	104%	–	–	–	–	–	–	–	–	–	–	–	–	–	–	–	–	–	–	–	–	–	–
O=C(Nc1cc2cc[nH]c2cn1)c1ccccc1	95%	90.7%	109%	112%	113%	109%	111%	106%	5.06%	1.54%	-0.599%	93.1%	113%	111%	114%	119%	130%	109%	104%	90.4%	45.8%	1.1%	79.4%	101%	102%	104%	99.7%	102%	103%	101%	58.2%	7.54%	1.18%
COc1ccc(C2CNC(=O)C2)cc1OC1CCCC1 (centres undefined)	88.6%	100%	102%	99%	109%	105%	107%	108%	105%	99%	102%	89%	106%	91.7%	99%	101%	96.7%	105%	103%	98.4%	102%	93%	84.8%	97.6%	89.7%	103%	95.6%	97.2%	92.4%	106%	106%	109%	99%
C[C@@H]\1CC(=O)N\N=C1C2=CC=C(NN=C(C#N)C#N)C=C2	91.5%	92.9%	94.3%	94.4%	95.7%	92.8%	93.5%	87.5%	91.3%	86.3%	29.4%	88.1%	93.2%	92.2%	89.5%	93.9%	92.4%	96.7%	91.1%	93.4%	81.1%	15.6%	81.2%	85.7%	88.2%	92.3%	92.3%	90.9%	91.3%	80.1%	83.7%	72.9%	12.8%
Cc1cnc(-c2cc(N3CCN(C(=O)CC[S+](C)(=O)[O-])CC3)ncc2Cl)c(C)c1	117%	116%	114%	130%	124%	131%	126%	122%	130%	128%	128%	–	–	–	–	–	–	–	–	–	–	–	–	–	–	–	–	–	–	–	–	–	–
C/C=C1\C2C=C(C)CC1(N)c1ccc(=O)[nH]c1C2 (centres undefined)	102%	108%	107%	107%	109%	109%	107%	104%	96.3%	106%	79.2%	105%	110%	112%	106%	113%	101%	98.3%	91.2%	98.9%	98.7%	92.8%	110%	98%	108%	102%	94.9%	107%	98.4%	97.1%	88.5%	95.2%	90.9%
COc1ccc(-c2ccc3c(N4CCOC[C@@H]4C)nc(N4CCOC[C@@H]4C)nc3n2)cc1CO	108%	82.1%	97%	82.8%	83.9%	77.7%	75.2%	74.7%	64.3%	37.6%	6.75%	93.9%	58.7%	80.3%	77.5%	66.2%	59.7%	60.5%	58.9%	54.3%	42.4%	18.6%	103%	65.6%	86.6%	78.7%	76.1%	70.8%	66.5%	58.3%	47.2%	39%	10.3%
CN(C)[C@H]\1[C@@H]2C[C@H]3C(=C(O)\[C@]2(O)C(=O)\C(=C1O)C(N)=O)/C(=O)C4=C(O)C=CC=C4[C@@]3(C)O	113%	115%	114%	115%	113%	116%	114%	111%	114%	108%	93.9%	112%	103%	109%	116%	118%	110%	114%	107%	115%	92.8%	98.8%	114%	101%	114%	111%	116%	116%	111%	104%	105%	97.5%	97%
CCOC(=O)C/1=C(O)/C(=O)N(CC2=CC=CC=C2)C1	114%	114%	114%	112%	111%	113%	109%	109%	99.1%	99.8%	100%	116%	121%	115%	119%	128%	120%	106%	122%	114%	106%	99.5%	107%	109%	123%	111%	113%	111%	120%	106%	114%	107%	99.2%
CC[C@H](C)[N]1C=C(C)C2=C1C=C(C=C2C(=O)NC\C3=C(C)\C=C(\C)NC3=O)C4=CC=C(N=C4)N5CCNCC5	109%	116%	114%	115%	115%	122%	116%	117%	114%	118%	109%	104%	116%	117%	118%	117%	113%	126%	129%	117%	125%	106%	103%	107%	108%	113%	115%	114%	116%	132%	115%	108%	93.1%
CCN1\C=C(\C(O)=O)C(=O)C2=CC=C(C)N=C12	88.3%	93.8%	101%	96.3%	101%	93.7%	105%	97.6%	95.7%	105%	93.6%	79.7%	82.3%	90%	90.1%	84.6%	89.3%	89.7%	90.6%	88.8%	98.8%	97%	77.2%	90.6%	87.1%	91%	96%	88.6%	86.4%	87.4%	91.3%	92.4%	90.1%
FC1=CC=C(SC/2=N/N3\C=N/C(=O)/C(=C3/C=C2)C4=C(Cl)C=CC=C4Cl)C(=C1)F	100%	104%	114%	108%	114%	102%	117%	114%	114%	94.9%	33.6%	105%	101%	95.7%	108%	106%	104%	106%	98.6%	93.4%	66.2%	24.8%	96.4%	104%	110%	104%	107%	107%	105%	120%	105%	86%	38.1%
